{"source": "paper PMC7852560", "about": "(Neuropsychopharmacology, 2020)", "key": {"NMDA": {"tested_on": "NMDA", "test": "SafetyScreen44 panel: NMDA", "type": "binding", "conditions": "1 µM", "from_the_text": "See https://www.eurofinsdiscoveryservices.com."}, "[1]": {"tested_on": "44 different receptors, ion channels and enzymes", "conditions": "1 µM", "method": "(§1) The screen assesses the selectivity of the compound on a diverse panel of targets that includes GPCRs, drug transporters, ion channels, nuclear receptors, kinases, and other non-kinase enzymes. The screen employs radioligand binding or enzyme assays for these 44 targets.\n(§2) For receptor assays, binding was calculated as percent inhibition of the binding of a radioactively labeled ligand specific for each target. For enzyme assays, the inhibition effect was calculated as percent inhibition of control enzyme activity. Tests were performed in duplicate, and results are averages of those two tests. See https://www.eurofinsdiscoveryservices.com."}, "DATKO mice": {"tested_on": "DATKO mice", "test": "Pre-pulse inhibition in DATKO mice", "type": "in vivo", "conditions": "10 mg/kg i.p.", "method": "Pre-Pulse Inhibition (PPI): PPI of the acoustic startle response was measured on day 3, via SR-LAB equipment and software from San Diego Instruments. Accelerometers were calibrated to 700±5 mV and output voltages were amplified and analyzed for voltage changes using SR Analysis (San Diego Instruments, San Diego, CA, USA), and exported as an excel file. Background white noise was maintained at 65dB. PPI was measured in a 30-min test with 80 randomized trials of: (1) 10 trials pulse alone (2) 10 trials pre-pulse alone (for each pre-pulse), (3) 10 trials pre-pulse plus pulse (for each pre-pulse), and (4) 10 trials no pulse. 5 pulse alone trials were performed before and after the 80 trials, totaling 90 trials per run. The pre-pulse (4dB, 8dB, or 16dB) was presented 100ms prior to the startle pulse […]. The inter-stimulus interval (ISI) was randomized between 5 and 20s. Experimental mice were placed in a cylindrical tube on a platform in a soundproof chamber. Mice were allowed to acclimatize in the chamber and to the background noise for 300s, followed by 5 consecutive pulse alone trials, then by 80 randomized trials (as described above) and then 5 consecutive pulse alone trials. Pre-pulse inhibition was measured as a decrease in the amplitude of startle response to a 100dB acoustic startle pulse, following each pre-pulse (4dB, 8dB and 16dB)."}, "5HT3": {"target": "T1, 5HT3 (Homo sapiens, UniProt P46098)", "T1 construct": "Eurofins Cerep", "T1 sequence (P46098 24-478)": "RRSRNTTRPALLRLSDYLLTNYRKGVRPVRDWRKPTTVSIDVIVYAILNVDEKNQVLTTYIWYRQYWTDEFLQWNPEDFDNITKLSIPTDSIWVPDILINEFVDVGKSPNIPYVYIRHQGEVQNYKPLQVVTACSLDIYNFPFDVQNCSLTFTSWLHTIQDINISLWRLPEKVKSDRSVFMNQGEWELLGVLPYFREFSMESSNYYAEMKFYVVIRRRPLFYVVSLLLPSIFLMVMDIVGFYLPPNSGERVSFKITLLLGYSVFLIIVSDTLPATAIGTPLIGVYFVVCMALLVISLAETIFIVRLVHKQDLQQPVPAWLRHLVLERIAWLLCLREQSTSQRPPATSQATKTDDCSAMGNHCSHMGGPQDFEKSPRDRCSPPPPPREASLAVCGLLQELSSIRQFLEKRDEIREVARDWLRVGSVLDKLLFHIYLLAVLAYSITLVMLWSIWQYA", "test": "SafetyScreen44 panel: 5HT3", "type": "binding", "conditions": "1 µM", "method": "as §1, §2"}, "CB1R [2]": {"target": "T2, CB1R (Homo sapiens, UniProt P21554)", "T2 sequence (P21554 whole entry)": "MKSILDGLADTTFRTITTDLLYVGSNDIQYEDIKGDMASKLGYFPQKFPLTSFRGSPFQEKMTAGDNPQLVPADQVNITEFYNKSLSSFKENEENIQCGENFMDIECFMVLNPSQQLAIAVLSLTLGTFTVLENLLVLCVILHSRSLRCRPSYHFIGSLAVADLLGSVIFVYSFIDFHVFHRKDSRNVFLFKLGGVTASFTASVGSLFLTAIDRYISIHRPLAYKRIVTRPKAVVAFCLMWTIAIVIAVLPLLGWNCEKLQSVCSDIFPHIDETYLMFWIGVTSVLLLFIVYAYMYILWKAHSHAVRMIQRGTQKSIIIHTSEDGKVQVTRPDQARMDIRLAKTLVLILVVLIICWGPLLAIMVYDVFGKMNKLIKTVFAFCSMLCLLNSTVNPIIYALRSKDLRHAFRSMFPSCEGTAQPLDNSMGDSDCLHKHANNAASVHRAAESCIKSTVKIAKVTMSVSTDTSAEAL", "test": "cell-based", "type": "cell-based", "method": "The cAMP BRET experiments were performed as previously described. Briefly, hCB1R HEK293 cells were transfected with 5 µg/10 cm dish of the CAMYEL biosensor using polyethylenimine. After 24 h, the cells were plated into white 96-well plates (PerkinElmer) at a density of 60,000 cells/well.\nCyclic AMP accumulation was measured using a DiscoverX HitHunter® cAMP Assay for Small Molecules (DiscoverX, Fremont, CA). hCB1R CHO cells were seeded at a density of 40,000 cells/well in 96-well white plates and grown overnight at 37 °C, 5% CO2 in a humidified incubator. […] Vehicle concentration was 1% DMSO, 0.1% BSA. Following agonist incubation, 15 µl of cAMP antibody reagent and 60 µl of working cAMP detection solution (containing 19 parts cAMP lysis buffer, 5 parts Substrate Reagent 1, 1 part Substrate Reagent 2 and 25 parts of cAMP Solution D) were added to all wells. Assay plates were incubated in the dark for 1 hr at room temperature, followed by addition of 60 µl cAMP solution A to all wells and incubation for 3 hr at room temperature in the dark. Plates were read using a GloMax Discover plate-reader (Promega, Madison, WI)."}, "CB1R [3]": {"target": "T2, CB1R", "test": "cell-based"}, "CB1R [4]": {"target": "T2, CB1R", "test": "Equilibrium binding assay with [3H]CP55,940 in hCB1R CHO cells", "method": "Non-specific binding was defined in the presence of 10 µM WIN55,212-2.\nRadioactivity was quantitated by liquid scintillation spectrometry. Specific binding was defined as the difference between the binding that occurred in the presence and absence of 10 µM of WIN55212. Data were analyzed by nonlinear regression analysis of allosteric modulator titration model using GraphPad Prism 8.0 (GraphPad, San Diego, CA)."}}, "note": "Where “and” joins values, the source holds several entries; their conditions need not be identical. Equal values may be shown once. Read-outs that look alike come from different tables or passages of the source."}
{"smiles": "CCc1c(-c2nnc(Nc3ccccc3)o2)[nH]c2ccc(Cl)cc12", "note": "[ABM300, 5-(5-chloro-3-ethyl-1H-indol-2-yl)-N-phenyl-1,3,4-oxadiazol-2-amine]", "values": [{"measurement": "binding to NMDA", "setting": "NMDA", "value": "did not display any significant binding"}, {"measurement": "binding to SafetyScreen44 targets", "setting": "[1]", "value": "did not display any significant binding"}, {"measurement": "sensorimotor gating deficits (PPI)", "setting": "DATKO mice", "value": "rescue of the PPI deficit at the 16 dB pre-pulse interval"}, {"measurement": "acoustic startle response", "setting": "DATKO mice; data not shown", "value": "Neither genotype, nor treatment with ABM300, had an effect"}, {"measurement": "binding to 5HT3", "setting": "5HT3", "value": "did not display any significant binding"}, {"measurement": "IC50", "setting": "CB1R [2]", "value": "379 nM and 355 nM and 380 nM"}, {"measurement": "IC50", "setting": "CB1R [3]; read-out: IC50, reduction in ERK1/2 phosphorylation", "value": 47, "unit": "nM"}, {"measurement": "IC50", "setting": "CB1R [3]; read-out: pIC50, reduction in ERK1/2 phosphorylation (converted)", "value": 41.7, "unit": "nM"}, {"measurement": "Kb", "setting": "CB1R [4]", "value": 178, "unit": "nM"}, {"measurement": "EC50", "setting": "CB1R [4]; EC50, increase in specific binding of [3H]CP55,940, hCB1R CHO, [3H]CP55,940 0.5 nM", "value": 132, "unit": "nM"}, {"measurement": "Emax, increase in specific binding of [3H]CP55,940", "setting": "CB1R [4]; hCB1R CHO, [3H]CP55,940 0.5 nM", "value": "328 ± 47", "unit": "%"}, {"measurement": "EC50", "setting": "CB1R [4]; pEC50, increase in specific binding of [3H]CP55,940, hCB1R CHO, [3H]CP55,940 0.5 nM", "value": 126, "unit": "nM"}]}
